# How the values were obtained:
# [1] = test system: collagen-induced arthritis (CIA) in male DBA/1 mice; test: CIA model, Example 3 (cumulative scores vs untreated controls); type: in vivo; details: Mus musculus
# Experimental: The CIA model data were acquired according to the following protocol: • 1. Male DBA/1 mice were anaesthetized by i.p. injection of ketamine/xylazine (1.25 mg/ml:0.25 mg/ml, 100 μl/mouse). • 2. Anaesthetized mice were immunized intradermally at the base of the tail with 0.1 or 0.2 ml of an emulsion composed of 100 or 200 μg bovine type II collagen in Complete Freund's Adjuvant (50 μl/spot x 2 or 4 spots). • 3. At day 21 after the immunization, mice received an intradermal boost of 100 μl of an emulsion composed of 100 μg bovine type II collagen in Incomplete Freund's Adjuvant (50 μl/spot x 2 spots) • 4. After onset of disease symptoms (usually 3-4 days after boost), tetracycline derivatives were administered daily into mice via intraperitoneal or oral routes for 8 to 15 days. Methotrexate (12 mg/kg/day) or dexmethasone (4 mg/kg/day) was used as a control for inflammation suppression. • 5. The disease severity was scored daily for 8-15 days after the appearance of the symptoms. Disease severity was graded as following: • a. Visual clinical score for the presence of inflammation in the fingers/toes of the forepaws and hindpaws: • 1. Erythema and mild swelling confined to the mid-foot (tarsals) or ankle joint • 2. Erythema and mild swelling extending from the ankle to the mid-foot • 3. Erythema and moderate swelling extending from the ankle to the metatarsal joints • 4. Erythema and severe swelling encompassing the ankle, foot, and digits. • b. Clinical swelling score for the presence of paw edema in the forepaws and hindpaws: • Paw thickness was measured daily by an engineering micrometer after isofluorane inhalation or ketamine/xylazine (1.25 mg/ml:0.25 mg/ml, 100 μl/mouse) i.p. injection.
# Daily scores and paw swelling measurements for each treatment group of mice were added over the total observation period to obtain a cumulative score. Cumulative scores were compared between untreated controls and treated groups to determine tetracycline-induced inhibition.
# E. coli 25922 = test: Antibacterial activity MIC, Gram- (Table 9); type: cell-based; details: Escherichia coli, CAMHB, 35° C., approximately 18 hr
# Experimental: (§1) 2 mg of each compound is dissolved in 100 μl of DMSO. The solution is then added to cation-adjusted Mueller Hinton broth (CAMHB), which results in a final compound concentration of 200 μg per ml. The tetracycline compound solutions are diluted to 50 μL volumes, with a test compound concentration of 0.098 μg/ml. Optical density (OD) determinations are made from fresh log-phase broth cultures of the test strains. Dilutions are made to achieve a final cell density of 1×10^6 CFU/ml. At OD=1, cell densities for different genera should be approximately:
# (§2) 50 μl of the cell suspensions are added to each well of microtiter plates. The final cell density should be approximately 5×10^5 CFU/ml. These plates are incubated at 35° C. in an ambient air incubator for approximately 18 hr. The plates are read with a microplate reader and are visually inspected when necessary. The MIC is defined as the lowest concentration of the tetracycline compound that inhibits growth.
# S. aureus RN450 = test: Antibacterial activity MIC, Gram+ (Table 9); type: cell-based; details: Staphylococcus aureus, CAMHB, 35° C., approximately 18 hr
# Experimental: as §1, §2
SMILES,inhibition in vivo at 25 mg/kg [1] [%],MIC (E. coli 25922) [µg/mL],MIC (S. aureus RN450) [µg/mL],inhibition in vivo at 12 mg/kg [1] [%],inhibition in vivo at 6 mg/kg ([1]; Dose 6 mg/kg) [%]
CCOC(=O)c1cc(N(C)C)c2c(c1O)C(=O)C1=C(O)[C@]3(O)C(=O)C(C(N)=O)=C(O)C[C@@H]3C[C@@H]1C2 [AA],41,> 64,2,,
CN(C)c1cc(-c2cnoc2)c(O)c2c1C[C@H]1C[C@H]3CC(O)=C(C(N)=O)C(=O)[C@@]3(O)C(O)=C1C2=O [AB],38,> 64,0.5,,
CN(C)c1cc(-c2ccn[nH]2)c(O)c2c1C[C@H]1C[C@H]3CC(O)=C(C(N)=O)C(=O)[C@@]3(O)C(O)=C1C2=O [AC],33,> 64,2,,
CO/N=C(/C)c1cc(N(C)C)c2c(c1O)C(=O)C1=C(O)[C@]3(O)C(=O)C(C(N)=O)=C(O)C[C@@H]3C[C@@H]1C2 [AD],30,> 64,2,,
CN(C)c1cc(-c2cccnc2)c(O)c2c1C[C@H]1C[C@H]3CC(O)=C(C(N)=O)C(=O)[C@@]3(O)C(O)=C1C2=O [AE],80,> 64,1,65,
CN(C)c1cc(-c2ccco2)c(O)c2c1C[C@H]1C[C@H]3CC(O)=C(C(N)=O)C(=O)[C@@]3(O)C(O)=C1C2=O [AG],39,> 64,0.25,,
CN(C)c1cc(C(=O)NC(C)(C)C)c(O)c2c1C[C@H]1C[C@H]3CC(O)=C(C(N)=O)C(=O)[C@@]3(O)C(O)=C1C2=O [AH],59,> 64,1,,
CN(C)c1cc(C(=O)Nc2ccccc2)c(O)c2c1C[C@H]1C[C@H]3CC(O)=C(C(N)=O)C(=O)[C@@]3(O)C(O)=C1C2=O [AI],62,> 64,0.12,,
CN(C)c1cc(-c2nccs2)c(O)c2c1C[C@H]1C[C@H]3CC(O)=C(C(N)=O)C(=O)[C@@]3(O)C(O)=C1C2=O [AJ],39,> 64,0.25,,
CN(C)c1cc(C(=O)OCCO)c(O)c2c1C[C@H]1C[C@H]3CC(O)=C(C(N)=O)C(=O)[C@@]3(O)C(O)=C1C2=O [AK],24,> 64,> 64,,
CCC(=O)c1cc(N(C)C)c2c(c1O)C(=O)C1=C(O)[C@]3(O)C(=O)C(C(N)=O)=C(O)C[C@@H]3C[C@@H]1C2 [AL],62,> 64,1,31,
Cc1cc(N(C)C)c2c(c1O)C(=O)C1=C(O)[C@]3(O)C(=O)C(C(N)=O)=C(O)C[C@@H]3C[C@@H]1C2 [AM],73,> 64,2,66,36
CN(C)c1cc(-c2ccccc2)c(O)c2c1C[C@H]1C[C@H]3CC(O)=C(C(N)=O)C(=O)[C@@]3(O)C(O)=C1C2=O [AN],65,> 64,1,49,
COCCOC(=O)c1cc(N(C)C)c2c(c1O)C(=O)C1=C(O)[C@]3(O)C(=O)C(C(N)=O)=C(O)C[C@@H]3C[C@@H]1C2 [AO],52,> 64,16,,
CN(C)c1cc(C2=CCCCO2)c(O)c2c1C[C@H]1C[C@H]3CC(O)=C(C(N)=O)C(=O)[C@@]3(O)C(O)=C1C2=O [AP],63,> 64,4,,
CC(C)c1noc(-c2cc(N(C)C)c3c(c2O)C(=O)C2=C(O)[C@]4(O)C(=O)C(C(N)=O)=C(O)C[C@@H]4C[C@@H]2C3)n1 [AR],64,> 64,0.5,,
CN(C)c1cc(-c2ccnn2C)c(O)c2c1C[C@H]1C[C@H]3CC(O)=C(C(N)=O)C(=O)[C@@]3(O)C(O)=C1C2=O [AS],56,> 64,1,30,
CC(C)c1cc(N(C)C)c2c(c1O)C(=O)C1=C(O)[C@]3(O)C(=O)C(C(N)=O)=C(O)C[C@@H]3C[C@@H]1C2 [AU],51,> 64,1,,
CN(C)c1cc(CC(C)(C)C)c(O)c2c1C[C@H]1C[C@H]3CC(O)=C(C(N)=O)C(=O)[C@@]3(O)C(O)=C1C2=O [AW],39,> 64,0.5,,
CN(C)c1cc(C(=O)CC(C)(C)C)c(O)c2c1C[C@H]1C[C@H]3CC(O)=C(C(N)=O)C(=O)[C@@]3(O)C(O)=C1C2=O [AX],51,> 64,0.5,,
Cc1ccc(N(C)C)c2c1C(=O)C1=C(O)[C@]3(O)C(=O)C(C(N)=O)=C(O)C[C@@H]3C[C@@H]1C2 [AY],38,> 64,8,,
CN(C)c1cc(C(=O)c2ccccc2)c(O)c2c1C[C@H]1C[C@H]3CC(O)=C(C(N)=O)C(=O)[C@@]3(O)C(O)=C1C2=O [AZ],36,> 64,1,,
Cc1ccc(O)c2c1C[C@H]1C[C@H]3CC(O)=C(C(N)=O)C(=O)[C@@]3(O)C(O)=C1C2=O [BA],34,64,0.25,,
NC(=O)C1=C(O)C[C@@H]2C[C@@H]3Cc4c(-c5ncco5)ccc(O)c4C(=O)C3=C(O)[C@]2(O)C1=O [BB],47,> 64,8,,
COc1cc(-c2ccc(O)c3c2C[C@H]2C[C@H]4[C@H](N(C)C)C(O)=C(C(N)=O)C(=O)[C@@]4(O)C(O)=C2C3=O)cc(OC)c1OC [Compound D],27,,,,
CN(C)c1ccc(O)c2c1C[C@H]1C[C@H]3CC(O)=C(C(N)=O)C(=O)[C@@]3(O)C(O)=C1C2=O [F],55,,,,
C=CCc1cc(N(C)C)c2c(c1O)C(=O)C1=C(O)[C@]3(O)C(=O)C(C(N)=O)=C(O)[C@@H](N(C)C)[C@@H]3C[C@@H]1C2 [I],29,,,,

# From patent US20100190755A1, “TETRACYCLINE COMPOUNDS FOR THE TREATMENT OF RHEUMATOID ARTHRITIS AND RELATED METHODS OF TREATMENT” (priority 2008, published 2010)
